The test system of assay [1] is Mahoney strain of poliovirus type 1. It counts as cell-based. Particulars: HeLa cells, 2 pfu/cell, 80 nM.
Assay [2] deals with T1, eIF4Ac and eIF4B (Homo sapiens, UniProt P60842).
T1 construct: Chemical crosslinking of initiation factor preparations to ^32P cap-labeled oxidized CAT mRNA
The experiment in a line: Chemical crosslinking of initiation factors to 32P cap-labeled mRNA. Format: binding. Particulars: 50 μM, in presence of ATP. The method, then: FIG. 6. Hippuristanol inhibits translation initiation. A. Hippuristanol inhibits 80S complex formation. ^32P-labeled CAT mRNA was incubated in rabbit reticulocyte lysate with cycloheximide (CHX) in the presence or absence of 50 μM hippuristanol. Complexes were resolved on glycerol gradients. Total counts recovered from each gradient and the percent mRNA bound in 80S complexes were: CAT mRNA/CHX [43,498 cpm, 22% binding] and CAT mRNA/CHX+Hipp. [45,279 cpm, 5.7% binding]. B. Hippuristanol inhibits crosslinking of eIF4Ac and eIF4B to capped mRNA. Initiation factors were chemically crosslinked to ^32P cap-labeled mRNA in the absence (lane 2) or presence of ATP (lanes 1, 3-6), 0.6 mM m^7GDP (lane 3), 0.6 mM GDP (lane 4), or 50 μM hippuristanol (lane 6). Following nuclease digestion, samples were resolved by SDS-PAGE and the gel subjected to autoradiography.
Ribosome Binding and mRNA Crosslinking. Ribosome binding assays were performed by incubating ^32P-labelled CAT mRNA in rabbit reticulocyte lysate or wheat germ extracts in the presence of: 600 μM cycloheximide (CHX), 1 mM GMP-PNP, and/or 50 μM hippuristanol or vehicle for 10 min (33). […] Fractions of 500 μl were collected and radioactivity was determined by scintillation counting. […]

Assay [3] concerns the target T2, eIF4AIf (Mus musculus, UniProt P60843).
T2 construct: inferred only from the Ni-NTA purification; made in house; host or cells: Escherichia coli BL21 (DE3) codon+
Put plainly: RNA-dependent ATPase assay with recombinant eIF4AIf. Format: biochemical, murine. As to conditions: 2.5 μM poly (U); relative to vehicle (0.5% DMSO). The method, then:
FIG. 7. Effects of hippuristanol on ATP hydrolysis, ATP binding, and RNA binding activities of eIF4A. A. Hippuristanol inhibits eIF4AIf RNA-dependent ATPase activity. The rate of ATP hydrolysis as a function of hippuristanol concentration is plotted relative to the rate obtained in the presence of vehicle (0.5% DMSO). ATP hydrolysis was measured in the presence of 2.5 μM poly (U) and monitored by thin layer chromatography. […] Samples were resolved by SDS-PAGE and subjected to autoradiography. C. The RNA binding activity of eIF4AIf is inhibited by hippuristanol. Oxidized ^32P-cap labeled CAT mRNA was incubated with recombinant eIF4AIf in the absence (lane 2) or presence of ATP (lanes 1, 3-6), 0.6 mM m^7GDP (lane 3), 0.6 mM GDP (lane 4), or 50 μM hippuristanol (lane 6). Following treatment with RNase A, samples were resolved by SDS-PAGE and subjected to autoradiography. The asterisk denotes the position of migration of a ˜30 kDa contaminant in the recombinant eIF4AIf preparation used as an internal loading reference. D. The RNA binding activity of eIF4Ac is inhibited by hippuristanol. Oxidized ^32P-cap labeled CAT mRNA was incubated with 0.7 μg of native eIF4F in the absence (lane 1) or presence (lane 2) of 50 μM hippuristanol. […]
Recombinant eIF4AI Purification and Assays. […] Quantifications were performed on a Fujix BAS2000 phosphoimager with a Fuji imaging screen. […]

T1 sequence (P60842 whole entry): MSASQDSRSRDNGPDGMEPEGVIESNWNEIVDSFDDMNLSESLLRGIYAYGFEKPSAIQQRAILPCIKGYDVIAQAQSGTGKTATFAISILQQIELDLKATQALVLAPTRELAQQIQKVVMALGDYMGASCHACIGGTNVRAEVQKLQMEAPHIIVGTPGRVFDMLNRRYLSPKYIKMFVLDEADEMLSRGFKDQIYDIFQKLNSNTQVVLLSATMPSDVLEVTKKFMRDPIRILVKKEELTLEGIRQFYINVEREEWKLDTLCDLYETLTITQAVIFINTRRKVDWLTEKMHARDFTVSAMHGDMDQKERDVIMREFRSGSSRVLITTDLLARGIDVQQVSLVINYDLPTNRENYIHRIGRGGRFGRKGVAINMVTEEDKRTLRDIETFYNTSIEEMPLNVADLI
T1 sequence (Q04637 whole entry partner): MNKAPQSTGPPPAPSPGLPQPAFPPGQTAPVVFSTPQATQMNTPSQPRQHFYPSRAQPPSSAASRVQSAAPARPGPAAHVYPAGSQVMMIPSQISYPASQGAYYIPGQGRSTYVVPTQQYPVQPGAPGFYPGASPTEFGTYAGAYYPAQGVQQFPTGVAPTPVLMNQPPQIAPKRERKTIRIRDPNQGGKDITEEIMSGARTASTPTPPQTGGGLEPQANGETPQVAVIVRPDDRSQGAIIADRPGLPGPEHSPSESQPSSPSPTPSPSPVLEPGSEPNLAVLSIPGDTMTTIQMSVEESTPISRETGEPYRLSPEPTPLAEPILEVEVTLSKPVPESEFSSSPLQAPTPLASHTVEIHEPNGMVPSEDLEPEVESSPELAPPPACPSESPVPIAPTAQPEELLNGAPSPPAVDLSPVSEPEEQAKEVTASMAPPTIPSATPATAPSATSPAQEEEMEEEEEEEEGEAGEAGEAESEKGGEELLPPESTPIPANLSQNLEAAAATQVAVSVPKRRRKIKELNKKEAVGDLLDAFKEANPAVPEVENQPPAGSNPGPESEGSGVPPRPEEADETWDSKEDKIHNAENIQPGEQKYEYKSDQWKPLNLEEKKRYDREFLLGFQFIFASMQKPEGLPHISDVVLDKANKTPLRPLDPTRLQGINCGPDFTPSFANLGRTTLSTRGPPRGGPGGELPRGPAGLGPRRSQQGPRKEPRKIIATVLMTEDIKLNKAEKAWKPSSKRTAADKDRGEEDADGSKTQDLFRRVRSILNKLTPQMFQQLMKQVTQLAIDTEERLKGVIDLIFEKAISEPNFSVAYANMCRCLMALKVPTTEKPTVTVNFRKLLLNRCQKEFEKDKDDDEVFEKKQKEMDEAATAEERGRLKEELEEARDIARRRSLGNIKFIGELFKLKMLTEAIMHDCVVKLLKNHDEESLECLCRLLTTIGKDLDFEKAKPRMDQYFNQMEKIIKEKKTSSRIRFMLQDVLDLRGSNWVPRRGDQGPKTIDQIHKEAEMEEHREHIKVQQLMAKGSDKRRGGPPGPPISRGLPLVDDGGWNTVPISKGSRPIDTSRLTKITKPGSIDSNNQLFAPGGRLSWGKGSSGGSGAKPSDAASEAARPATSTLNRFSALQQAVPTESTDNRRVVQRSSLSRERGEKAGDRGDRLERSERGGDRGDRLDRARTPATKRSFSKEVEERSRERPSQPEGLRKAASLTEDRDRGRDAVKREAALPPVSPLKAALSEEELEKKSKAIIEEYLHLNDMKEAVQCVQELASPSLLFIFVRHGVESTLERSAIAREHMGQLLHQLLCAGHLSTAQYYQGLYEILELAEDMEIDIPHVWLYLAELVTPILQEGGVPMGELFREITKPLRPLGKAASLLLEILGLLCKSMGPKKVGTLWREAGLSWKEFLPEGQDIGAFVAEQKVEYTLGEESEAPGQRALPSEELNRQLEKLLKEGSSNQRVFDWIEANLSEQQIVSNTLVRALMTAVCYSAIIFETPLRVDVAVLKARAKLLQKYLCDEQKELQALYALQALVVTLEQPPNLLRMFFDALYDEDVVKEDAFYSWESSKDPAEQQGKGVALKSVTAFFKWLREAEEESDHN
T1 sequence (P06730 whole entry partner): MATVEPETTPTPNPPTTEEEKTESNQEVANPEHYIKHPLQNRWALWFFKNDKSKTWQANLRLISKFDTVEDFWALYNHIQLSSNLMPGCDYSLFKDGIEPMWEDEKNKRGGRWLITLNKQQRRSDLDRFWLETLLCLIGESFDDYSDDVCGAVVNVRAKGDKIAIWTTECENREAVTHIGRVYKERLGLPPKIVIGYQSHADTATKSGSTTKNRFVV
T2 sequence (P60843 whole entry): as the sequence (P60842 whole entry) above

With `C[C@H]1C[C@@]2(O[C@H]3C[C@H]4[C@@H]5CC[C@H]6C[C@H](O)CC[C@]6(C)[C@H]5[C@@H](O)C[C@]4(C)[C@H]3[C@@]2(C)O)OC1(C)C` [Hippuristanol, hippuristanol], in assay [1], the “eIF4GII cleavage following poliovirus infection” value is listed as “delays” and the “onset of poliovirus proteins during infection” value is “delays”. Moreover, the “crosslinking of eIF4Ac and eIF4B to capped mRNA” value in assay [2] is listed as “inhibits”. Also, the “eIF4AIf RNA-dependent ATPase activity” value in assay [3] is on record as “inhibits”.
